Assay [1] has as its target T1, Muscarinic acetylcholine receptor M2 (Homo sapiens) (UniProt P08172).
T1 sequence (whole entry): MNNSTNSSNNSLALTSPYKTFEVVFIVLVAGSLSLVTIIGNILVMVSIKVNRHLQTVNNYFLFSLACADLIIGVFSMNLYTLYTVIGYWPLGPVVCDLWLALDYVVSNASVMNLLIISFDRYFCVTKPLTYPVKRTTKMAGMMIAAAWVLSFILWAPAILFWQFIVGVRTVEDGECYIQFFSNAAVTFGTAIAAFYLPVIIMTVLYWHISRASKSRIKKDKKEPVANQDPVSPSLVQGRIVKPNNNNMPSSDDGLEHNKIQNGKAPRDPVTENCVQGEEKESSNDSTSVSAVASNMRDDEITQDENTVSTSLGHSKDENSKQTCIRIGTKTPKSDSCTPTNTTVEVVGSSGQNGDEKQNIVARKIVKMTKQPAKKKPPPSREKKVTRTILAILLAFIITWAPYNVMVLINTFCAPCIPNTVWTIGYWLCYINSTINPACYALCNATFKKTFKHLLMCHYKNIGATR
The assay can be described thus: Selectivity interaction (Eurofins Panlabs Discovery Services Panel (enzymes and receptors)) EUB0000234b CHRM2. The conditions noted are these: at 10 µM.

In assay [2] the target is Muscarinic acetylcholine receptor M2 (Homo sapiens, UniProt P08172). Put plainly: Selectivity interaction (GloSensor assay) EUB0000234b CHRM2.
Assay [3] addresses Adenosine receptor A2b (Homo sapiens) (UniProt P29275). Put plainly: Selectivity interaction (Eurofins Panlabs Discovery Services Panel (enzymes and receptors)) EUB0000234b ADORA2B. Particulars: at 10 µM.
The next assay has as its target Adenosine receptor A2b (Homo sapiens, UniProt P29275). Put plainly: Selectivity interaction (GloSensor assay) EUB0000234b ADORA2B.
Assay [4] addresses T2, Histamine H3 receptor (Homo sapiens, UniProt Q9Y5N1). The assay can be described thus: Selectivity interaction (Eurofins Panlabs Discovery Services Panel (enzymes and receptors)) EUB0000234b HRH3. The conditions noted are these: at 10 µM.
Assay [5] addresses T2, Histamine H3 receptor. The assay can be described thus: Selectivity interaction (GloSensor assay) EUB0000234b HRH3.
In assay [6] the target is T3, Mu-type opioid receptor (Homo sapiens, UniProt P35372). Put plainly: Selectivity interaction (Eurofins Panlabs Discovery Services Panel (enzymes and receptors)) EUB0000234b OPRM1. The conditions noted are these: at 10 µM.
T3 sequence (P35372 whole entry): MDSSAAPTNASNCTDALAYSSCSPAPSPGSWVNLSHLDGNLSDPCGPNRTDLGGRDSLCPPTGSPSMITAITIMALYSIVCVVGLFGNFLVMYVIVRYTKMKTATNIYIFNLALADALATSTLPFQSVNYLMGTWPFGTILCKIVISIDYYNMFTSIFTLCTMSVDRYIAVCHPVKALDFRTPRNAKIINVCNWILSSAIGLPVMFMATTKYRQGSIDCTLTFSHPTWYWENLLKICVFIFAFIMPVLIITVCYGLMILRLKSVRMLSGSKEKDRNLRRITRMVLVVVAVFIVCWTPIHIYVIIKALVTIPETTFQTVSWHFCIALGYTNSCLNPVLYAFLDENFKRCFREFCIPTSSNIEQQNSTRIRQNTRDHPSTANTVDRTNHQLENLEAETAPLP
The target in assay [7] is T3, Mu-type opioid receptor. Put plainly: Selectivity interaction (GloSensor assay) EUB0000234b OPRM1.
Assay [8] has as its target Histone-lysine N-methyltransferase PRDM9 (Homo sapiens) (UniProt Q9NQV7). Put plainly: Selectivity interaction (Methyltransferase panel (DSF assay)) EUB0000234b PRDM9. (In general: In DSF a fluorescence change marks the thermal transition of the protein.)
For assay [9] the target is unchanged. The assay can be described thus: Selectivity interaction (NanoLuciferase thermal shift assay (NALTSA, in HEK293 cells)) EUB0000234b PRDM9. The class given is cell-based.
Assay [10] deals with PR domain-containing protein 11 (Homo sapiens) (UniProt Q9NQV5). Put plainly: Selectivity interaction (Methyltransferase panel (DSF assay)) EUB0000234b PRDM11.
Chain of PR domain-containing protein 11 (Homo sapiens) (Q9NQV5 whole entry, the tested form may be a part): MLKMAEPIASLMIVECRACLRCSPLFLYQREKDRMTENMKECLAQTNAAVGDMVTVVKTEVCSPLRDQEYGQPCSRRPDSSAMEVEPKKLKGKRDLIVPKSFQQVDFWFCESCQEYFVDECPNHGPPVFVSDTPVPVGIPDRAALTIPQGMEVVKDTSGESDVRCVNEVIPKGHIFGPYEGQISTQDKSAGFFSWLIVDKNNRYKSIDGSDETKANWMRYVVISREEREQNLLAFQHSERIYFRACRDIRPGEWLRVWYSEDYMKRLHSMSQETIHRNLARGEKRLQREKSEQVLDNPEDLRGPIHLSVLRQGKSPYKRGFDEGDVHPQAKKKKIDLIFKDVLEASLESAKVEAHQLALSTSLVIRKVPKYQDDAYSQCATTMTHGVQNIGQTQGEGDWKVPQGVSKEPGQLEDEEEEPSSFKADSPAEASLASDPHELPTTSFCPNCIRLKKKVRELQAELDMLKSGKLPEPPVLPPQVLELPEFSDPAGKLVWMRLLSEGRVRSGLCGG
Assay [11] deals with PR domain zinc finger protein 12 (Homo sapiens) (UniProt Q9H4Q4). Put plainly: Selectivity interaction (Methyltransferase panel (DSF assay)) EUB0000234b PRDM12.
Chain of PR domain zinc finger protein 12 (Homo sapiens) (Q9H4Q4 whole entry, the tested form may be a part): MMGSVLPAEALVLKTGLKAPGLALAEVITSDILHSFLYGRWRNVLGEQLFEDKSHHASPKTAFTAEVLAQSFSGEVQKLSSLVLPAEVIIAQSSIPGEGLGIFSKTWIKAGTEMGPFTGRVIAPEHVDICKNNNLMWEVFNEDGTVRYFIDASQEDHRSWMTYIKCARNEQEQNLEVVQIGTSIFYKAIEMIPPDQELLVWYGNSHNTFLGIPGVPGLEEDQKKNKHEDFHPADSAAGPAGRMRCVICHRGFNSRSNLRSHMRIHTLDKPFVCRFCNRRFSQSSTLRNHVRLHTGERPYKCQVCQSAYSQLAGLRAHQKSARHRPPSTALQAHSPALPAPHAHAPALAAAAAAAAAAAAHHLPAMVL
In assay [12] the target is PR domain zinc finger protein 13 (Homo sapiens) (UniProt Q9H4Q3). The assay can be described thus: Selectivity interaction (Methyltransferase panel (DSF assay)) EUB0000234b PRDM13.
Chain of PR domain zinc finger protein 13 (Homo sapiens) (Q9H4Q3 whole entry, the tested form may be a part): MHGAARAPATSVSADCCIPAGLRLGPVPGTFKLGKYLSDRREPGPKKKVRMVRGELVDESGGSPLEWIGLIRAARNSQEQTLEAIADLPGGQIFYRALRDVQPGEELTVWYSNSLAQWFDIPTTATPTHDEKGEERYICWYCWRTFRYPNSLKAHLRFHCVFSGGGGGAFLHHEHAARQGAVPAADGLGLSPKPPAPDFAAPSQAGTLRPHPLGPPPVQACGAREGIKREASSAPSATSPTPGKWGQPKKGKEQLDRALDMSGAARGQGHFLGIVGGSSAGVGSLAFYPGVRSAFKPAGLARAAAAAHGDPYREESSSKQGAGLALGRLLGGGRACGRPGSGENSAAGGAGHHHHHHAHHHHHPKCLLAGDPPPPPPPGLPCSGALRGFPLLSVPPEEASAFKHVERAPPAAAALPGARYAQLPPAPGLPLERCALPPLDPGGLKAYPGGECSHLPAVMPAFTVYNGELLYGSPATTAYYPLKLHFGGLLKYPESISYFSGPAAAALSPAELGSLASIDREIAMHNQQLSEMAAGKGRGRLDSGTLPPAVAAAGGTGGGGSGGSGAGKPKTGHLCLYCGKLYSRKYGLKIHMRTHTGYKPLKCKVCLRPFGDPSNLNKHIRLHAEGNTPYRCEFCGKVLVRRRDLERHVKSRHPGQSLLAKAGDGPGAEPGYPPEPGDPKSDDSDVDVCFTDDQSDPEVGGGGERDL
Assay [13] deals with PR domain zinc finger protein 14 (Homo sapiens) (UniProt Q9GZV8). Put plainly: Selectivity interaction (Methyltransferase panel (DSF assay)) EUB0000234b PRDM14.
In assay [14] the target is Histone-lysine N-methyltransferase PRDM7 (Homo sapiens) (UniProt Q9NQW5). Put plainly: Selectivity interaction (Methyltransferase panel (DSF assay)) EUB0000234b PRDM7.
Assay [15] has as its target PR domain zinc finger protein 8 (Homo sapiens) (UniProt Q9NQV8). Put plainly: Selectivity interaction (Methyltransferase panel (DSF assay)) EUB0000234b PRDM8.
Assay [16] has as its target Histone-lysine N-methyltransferase MECOM (Homo sapiens) (UniProt Q03112). The assay can be described thus: Selectivity interaction (Methyltransferase panel (DSF assay)) EUB0000234b MECOM.
Assay [17] concerns the target PR domain zinc finger protein 1 (Homo sapiens) (UniProt O75626). The assay can be described thus: Selectivity interaction (Methyltransferase panel (DSF assay)) EUB0000234b PRDM1.
In assay [18] the target is PR domain zinc finger protein 10 (Homo sapiens) (UniProt Q9NQV6). Put plainly: Selectivity interaction (Methyltransferase panel (DSF assay)) EUB0000234b PRDM10.
Assay [19] concerns the target Histone-lysine N-methyltransferase PRDM16 (Homo sapiens) (UniProt Q9HAZ2). Put plainly: Selectivity interaction (Methyltransferase panel (DSF assay)) EUB0000234b PRDM16.
Assay [20] has as its target PR domain zinc finger protein 2 (Homo sapiens) (UniProt Q13029). Put plainly: Selectivity interaction (Methyltransferase panel (DSF assay)) EUB0000234b PRDM2.
The target in assay [21] is Putative histone-lysine N-methyltransferase PRDM6 (Homo sapiens) (UniProt Q9NQX0). Put plainly: Selectivity interaction (Methyltransferase panel (DSF assay)) EUB0000234b PRDM6.

Structures are written as SMILES. Where only a bound is given, the exact number is not on record here.

Chain of Histone-lysine N-methyltransferase PRDM9 (Homo sapiens) (Q9NQV7 whole entry): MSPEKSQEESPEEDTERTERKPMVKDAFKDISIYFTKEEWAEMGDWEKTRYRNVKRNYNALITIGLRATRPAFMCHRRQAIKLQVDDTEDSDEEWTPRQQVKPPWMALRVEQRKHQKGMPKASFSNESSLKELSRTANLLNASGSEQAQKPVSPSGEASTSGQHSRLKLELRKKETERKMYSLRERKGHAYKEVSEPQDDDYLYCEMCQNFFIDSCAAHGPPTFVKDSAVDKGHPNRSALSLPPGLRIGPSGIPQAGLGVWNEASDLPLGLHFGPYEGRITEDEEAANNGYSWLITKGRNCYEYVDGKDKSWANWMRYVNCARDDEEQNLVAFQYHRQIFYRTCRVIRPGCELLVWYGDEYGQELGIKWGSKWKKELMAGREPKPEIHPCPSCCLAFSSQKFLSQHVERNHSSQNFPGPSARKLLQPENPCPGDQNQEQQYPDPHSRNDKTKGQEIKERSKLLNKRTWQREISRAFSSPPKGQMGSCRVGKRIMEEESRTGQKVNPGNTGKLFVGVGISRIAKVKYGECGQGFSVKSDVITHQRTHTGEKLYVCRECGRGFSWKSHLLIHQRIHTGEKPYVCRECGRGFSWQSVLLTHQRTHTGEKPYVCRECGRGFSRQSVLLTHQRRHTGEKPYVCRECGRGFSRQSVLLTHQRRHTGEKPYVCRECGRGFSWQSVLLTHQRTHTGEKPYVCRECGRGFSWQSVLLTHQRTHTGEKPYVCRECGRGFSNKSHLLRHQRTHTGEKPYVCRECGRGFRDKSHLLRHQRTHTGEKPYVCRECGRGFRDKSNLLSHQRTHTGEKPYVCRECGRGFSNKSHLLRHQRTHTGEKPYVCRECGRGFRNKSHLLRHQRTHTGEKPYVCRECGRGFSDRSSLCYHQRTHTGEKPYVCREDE
T2 sequence (Q9Y5N1 whole entry): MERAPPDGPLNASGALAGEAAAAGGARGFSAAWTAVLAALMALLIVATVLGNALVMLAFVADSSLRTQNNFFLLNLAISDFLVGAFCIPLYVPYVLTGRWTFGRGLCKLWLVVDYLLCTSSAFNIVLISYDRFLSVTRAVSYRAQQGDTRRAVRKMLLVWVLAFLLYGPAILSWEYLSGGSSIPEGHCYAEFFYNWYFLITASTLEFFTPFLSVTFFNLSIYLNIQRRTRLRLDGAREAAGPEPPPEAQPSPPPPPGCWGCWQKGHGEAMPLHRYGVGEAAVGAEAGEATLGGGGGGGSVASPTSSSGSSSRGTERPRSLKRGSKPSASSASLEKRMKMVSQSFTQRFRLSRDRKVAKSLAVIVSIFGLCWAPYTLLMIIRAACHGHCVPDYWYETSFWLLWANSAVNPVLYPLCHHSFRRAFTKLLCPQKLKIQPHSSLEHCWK
Chain of PR domain zinc finger protein 8 (Homo sapiens) (Q9NQV8 whole entry, the tested form may be a part): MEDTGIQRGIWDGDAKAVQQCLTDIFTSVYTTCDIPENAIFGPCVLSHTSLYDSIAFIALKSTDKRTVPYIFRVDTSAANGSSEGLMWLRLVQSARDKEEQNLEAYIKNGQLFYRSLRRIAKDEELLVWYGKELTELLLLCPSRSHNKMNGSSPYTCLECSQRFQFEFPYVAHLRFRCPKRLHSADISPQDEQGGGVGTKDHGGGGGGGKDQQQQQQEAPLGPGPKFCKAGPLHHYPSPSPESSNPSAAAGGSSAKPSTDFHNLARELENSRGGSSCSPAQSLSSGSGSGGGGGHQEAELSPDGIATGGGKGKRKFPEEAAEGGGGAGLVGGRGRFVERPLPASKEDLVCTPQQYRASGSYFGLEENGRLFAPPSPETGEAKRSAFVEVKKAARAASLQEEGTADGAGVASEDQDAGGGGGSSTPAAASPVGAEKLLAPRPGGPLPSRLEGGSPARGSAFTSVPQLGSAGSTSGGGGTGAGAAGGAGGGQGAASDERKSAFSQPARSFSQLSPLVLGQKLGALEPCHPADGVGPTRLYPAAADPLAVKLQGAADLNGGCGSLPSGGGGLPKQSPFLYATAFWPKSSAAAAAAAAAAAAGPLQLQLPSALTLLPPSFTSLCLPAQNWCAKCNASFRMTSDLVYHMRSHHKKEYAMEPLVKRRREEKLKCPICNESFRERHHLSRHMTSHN
Chain of PR domain zinc finger protein 1 (Homo sapiens) (O75626 whole entry, the tested form may be a part): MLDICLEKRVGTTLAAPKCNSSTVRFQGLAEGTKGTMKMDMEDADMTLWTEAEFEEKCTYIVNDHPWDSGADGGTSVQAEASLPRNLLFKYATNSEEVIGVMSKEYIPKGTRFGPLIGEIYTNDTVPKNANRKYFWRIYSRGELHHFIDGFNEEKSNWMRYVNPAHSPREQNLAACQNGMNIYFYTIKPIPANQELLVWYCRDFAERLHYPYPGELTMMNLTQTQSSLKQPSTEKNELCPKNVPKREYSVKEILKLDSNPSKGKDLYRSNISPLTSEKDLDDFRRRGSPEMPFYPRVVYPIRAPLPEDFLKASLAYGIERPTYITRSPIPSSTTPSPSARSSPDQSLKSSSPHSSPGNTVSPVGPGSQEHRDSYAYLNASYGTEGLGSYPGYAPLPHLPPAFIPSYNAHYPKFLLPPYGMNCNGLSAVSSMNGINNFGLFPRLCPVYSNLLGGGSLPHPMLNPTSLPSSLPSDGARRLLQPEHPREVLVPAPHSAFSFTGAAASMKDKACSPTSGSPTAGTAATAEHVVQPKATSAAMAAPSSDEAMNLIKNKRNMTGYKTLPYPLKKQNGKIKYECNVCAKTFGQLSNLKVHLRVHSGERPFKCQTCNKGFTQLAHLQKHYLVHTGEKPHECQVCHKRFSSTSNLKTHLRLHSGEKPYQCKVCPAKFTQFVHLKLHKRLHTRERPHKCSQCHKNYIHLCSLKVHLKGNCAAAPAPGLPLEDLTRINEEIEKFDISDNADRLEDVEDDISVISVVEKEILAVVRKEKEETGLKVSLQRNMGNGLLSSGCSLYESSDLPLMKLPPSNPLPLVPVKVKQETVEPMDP

As for `COc1cc(OC)cc(-c2noc(N3CCN(C)C4(CCN(c5ccnc(C)c5)CC4)C3)n2)c1`, the % of inhibition (in [1]; in assay [3]; at Histamine H3 receptor [4]; at Mu-type opioid receptor [6]) was > 50% each time. The EC50 (in assay [2]; on Adenosine receptor A2b; on Histamine H3 receptor [5]; at Mu-type opioid receptor [7]) was > 10 µM throughout. For the same compound, the dTm in assay [8] is 5.2 K; in assay [9], 2 K; in assay [10], < 2 K; in assay [11], < 2 K; in assay [12] it was < 2 K; in [13], < 2 K. Besides, the dTm in assay [14] is 5 K; in assay [15] it was < 2 K; in [16], < 2 K; in [17] it was < 2 K; in assay [18], < 2 K; in assay [19] it was < 2 K. The dTm in assay [20] and in assay [21] was < 2 K each time.
